Measured values: PMC7617969, “Carboxylic Acid Bioisosteres Boost Nurr1 Agonist Selectivity” (Journal of medicinal chemistry, 2025)
Values joined by “and” are separate entries in the source; they are usually repeats but may differ in a detail not shown here. Equal entries are not always repeated. Where two headings read alike, the source gives them in different places.

Key:
Nurr1 [1] = target: T1, Nurr1 (Homo sapiens, UniProt P43354); test: Gal4-Nurr1 hybrid reporter gene assay; assay type: cell-based; settings: for selectivity index DHODH/Nurr1: IC50(DHODH) / EC50(Nurr1); for EC50 / max. activation (Nurr1): Gal4-Nurr1 hybrid reporter gene assay; for EC50: HEK293T cells, mean ± S.E.M., n ≥ 3; for max. activation (Nurr1): fold activation vs untreated control; for efficacy_NR4A2: supplementary csv, max. activation in %
T1 construct: expressed in transfected cells; host or cells: HEK293T

DHODH [2] = target: T2, DHODH (Homo sapiens, UniProt Q02127); settings: recombinant human DHODH; cited from earlier work
T2 construct: using an N-terminally truncated recombinant DHODH enzyme as described previously[20]

Nurr1 [3] = target: T1, Nurr1; settings: cited from earlier work; for efficacy_NR4A2: supplementary csv
DHODH [4] = target: T2, DHODH; test: DHODH inhibition colorimetric assay on recombinant human protein; assay type: biochemical
[5] = Gal4-Nurr1 hybrid reporter gene assay
[6] = recombinant human DHODH, colorimetric, mean ± S.E.M., n ≥ 3, read-out: IC50 (DHODH)

T2 sequence (Q02127 31-395): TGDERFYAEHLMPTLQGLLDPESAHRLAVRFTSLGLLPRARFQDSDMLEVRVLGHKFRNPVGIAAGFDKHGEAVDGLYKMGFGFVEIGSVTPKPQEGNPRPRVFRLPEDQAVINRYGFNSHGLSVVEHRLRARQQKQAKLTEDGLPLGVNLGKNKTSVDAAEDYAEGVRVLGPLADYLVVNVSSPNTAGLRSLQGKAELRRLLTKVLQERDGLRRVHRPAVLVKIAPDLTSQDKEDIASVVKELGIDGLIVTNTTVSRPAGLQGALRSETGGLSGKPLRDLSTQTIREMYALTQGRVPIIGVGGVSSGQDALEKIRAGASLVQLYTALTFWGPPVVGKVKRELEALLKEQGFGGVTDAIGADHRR
T1 sequence (P43354 360-595 limits assumed): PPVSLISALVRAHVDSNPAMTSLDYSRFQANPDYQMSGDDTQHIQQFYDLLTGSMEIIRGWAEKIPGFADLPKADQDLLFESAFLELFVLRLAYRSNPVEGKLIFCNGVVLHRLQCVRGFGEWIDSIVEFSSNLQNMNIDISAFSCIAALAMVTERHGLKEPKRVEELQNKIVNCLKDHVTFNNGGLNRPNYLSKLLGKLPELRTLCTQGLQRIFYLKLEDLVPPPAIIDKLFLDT

Row | Compound | selectivity index DHODH/Nurr1 (Nurr1 [1]) | EC50 (Nurr1 [1]) | max. activation (Nurr1) (Nurr1 [1]) | efficacy_NR4A2 (Nurr1 [1]) | IC50 (DHODH [4]; [6]) | Nurr1 preference/selectivity over DHODH (Nurr1 [1]) | inhibition at 100 µM (DHODH [4]; recombinant human DHODH) | IC50 (DHODH [4]; supplementary csv, read-out: IC50_DHODH) | IC50 (DHODH [2]) | EC50 (Nurr1 [3]; [5]) | max. activation (Nurr1) (Nurr1 [3]; [5]) | efficacy_NR4A2 (Nurr1 [3])
1 | [2H]C([2H])([2H])Oc1cccc(-c2cc(F)c(NC(=O)C3=C(c4noc(=O)[nH]4)CCC3)c(F)c2)c1 [compound 8] | 9 |  |  |  |  |  |  |  | 9260 nM and 9000 nM | 1000 ± 100 nM | 2.0±0.1 fold | 200%
2 | [2H]C([2H])([2H])Oc1cccc(-c2c(F)c(F)c(NC(=O)C3=C(c4nn[nH]n4)COC3)c(F)c2F)c1 [compound 30, N-{2,3,5,6-Tetrafluoro-3’-(^2H3)methoxy-[1,1'-biphenyl]-4-yl}-4-(2H-tetrazol-5-yl)-2,5-dihydrofuran-3-carboxamide] | 13.6 | 220 nM | 2.0±0.2 fold | 200% | 3000 ± 1000 nM | 14 fold |  |  |  |  |  | 
3 | [2H]C([2H])([2H])Oc1cccc(-c2c(F)c(F)c(NC(=O)C3=C(C(=O)O)CCC3)c(F)c2F)c1 [compound 10] |  |  |  |  |  |  |  |  |  |  | 1.9±0.1 fold | 188%
4 | [2H]C([2H])([2H])Oc1cccc(-c2c(F)c(F)c(NC(=O)C3=C(C(=O)O)COC3)c(F)c2F)c1 [compound 29] |  |  | 2.5±0.1 fold | 250% |  |  |  |  |  |  |  | 
5 | [2H]C([2H])([2H])Oc1cccc(-c2c(F)c(F)c(NC(=O)c3cscc3-c3noc(=O)[nH]3)c(F)c2F)c1 [compound 21, 4-(5-Oxo-4,5-dihydro-1,2,4-oxadiazol-3-yl)-N-{2,3,5,6-tetrafluoro-3’-(^2H3)methoxy-[1,1'-biphenyl]-4-yl}thiophene-3-carboxamide] | 13 | 30 ± 10 nM | 2.2±0.1 fold | 220% | 400 ± 60 nM |  |  |  |  |  |  | 
6 | [2H]C([2H])([2H])Oc1cccc(-c2c(F)c(F)c(NC(=O)c3cscc3-c3noc(=S)[nH]3)c(F)c2F)c1 [compound 23, N-{2,3,5,6-Tetrafluoro-3’-(^2H3)methoxy-[1,1'-biphenyl]-4-yl}-4-(5-thioxo-4,5-dihydro-1,2,4-oxadiazol-3-yl)thiophene-carboxamide] | 1.7 | 36 ± 3 nM | 1.77±0.04 fold | 177% | 62 ± 4 nM |  |  |  |  |  |  | 
7 | [2H]C([2H])([2H])Oc1cccc(-c2c(F)c(F)c(NC(=O)c3cscc3-c3n[nH]c(=O)o3)c(F)c2F)c1 [compound 26, 4-(5-Oxo-4,5-dihydro-1,3,4-oxadiazol-2-yl)-N-{2,3,5,6-tetrafluoro-3’-(^2H3)methoxy-[1,1'-biphenyl]-4-yl}thiophene-3-carboxamide] | 5.9 | 17 ± 2 nM | 1.8±0.1 fold | 180% | 100 ± 10 nM |  |  |  |  |  |  | 
8 | [2H]C([2H])([2H])Oc1cccc(-c2c(F)c(F)c(NC(=O)c3ccsc3-c3noc(=O)[nH]3)c(F)c2F)c1 [compound 18, 2-(5-Oxo-4,5-dihydro-1,2,4-oxadiazol-3-yl)-N-{2,3,5,6-tetrafluoro-3’-(^2H3)methoxy-[1,1'-biphenyl]-4-yl}thiophene-3-carboxamide] | 13 | 50 ± 10 nM | 1.86 ± 0.11 fold | 186% | 660 ± 80 nM |  |  |  |  |  |  | 
9 | [2H]C([2H])([2H])Oc1cccc(-c2c(F)c(F)c(NC(=O)c3cscc3-c3n[nH]c(=S)o3)c(F)c2F)c1 [compound 27, N-(2,3,5,6-Tetrafluoro-3’-(^2H3)methoxy-[1,1'-biphenyl]-4-yl)-4-{5-thioxo-4,5-dihydro-1,3,4-oxadiazol-2-yl}thiophene-3-carboxamide] | 6.0 | 160 ± 50 nM | 1.7±0.1 fold | 170% | 960 ± 90 nM |  |  |  |  |  |  | 
10 | [2H]C([2H])([2H])Oc1cccc(-c2c(F)c(F)c(NC(=O)c3cscc3C3=NOS(=O)N3)c(F)c2F)c1 (stereo not drawn) [compound 28, 4-(2-Oxido-3H-1,2,3,5-oxathiadiazol-4-yl)-N-{2,3,5,6-tetrafluoro-3’-(^2H3)methoxy-[1,1'-biphenyl]-4-yl}thiophene-3-carboxamide] | 30 | 39 ± 5 nM | 2.4±0.1 fold | 240% | 1200 ± 200 nM |  |  |  |  |  |  | 

Continued by falling EC50 (Nurr1 [1]), values first:

Row | selectivity index DHODH/Nurr1 (Nurr1 [1]) | EC50 (Nurr1 [1]) | max. activation (Nurr1) (Nurr1 [1]) | efficacy_NR4A2 (Nurr1 [1]) | IC50 (DHODH [4]; [6]) | Nurr1 preference/selectivity over DHODH (Nurr1 [1]) | inhibition at 100 µM (DHODH [4]; recombinant human DHODH) | IC50 (DHODH [4]; supplementary csv, read-out: IC50_DHODH) | Compound | IC50 (DHODH [2]) | EC50 (Nurr1 [3]; [5]) | max. activation (Nurr1) (Nurr1 [3]; [5]) | efficacy_NR4A2 (Nurr1 [3])
11 | 4.2 | 2600 ± 300 nM | 1.9±0.2 fold | 190% | 11100 ± 600 nM |  |  |  | [2H]C([2H])([2H])Oc1cccc(-c2c(F)c(F)c(NC(=O)c3cscc3-c3nc(=O)on3C)c(F)c2F)c1 [compound 24, 4-(2-Methyl-5-oxo-2,5-dihydro-1,2,4-oxadiazol-3-yl)-N-{2,3,5,6-tetrafluoro-3’-(^2H3)methoxy-[1,1'-biphenyl]-4-yl}thiophene-3-carboxamide] |  |  |  | 
12 | ~100 | 1200 ± 100 nM | 2.05 ± 0.08 fold | 205% |  |  | 49 ± 1% |  | [2H]C([2H])([2H])Oc1cccc(-c2c(F)c(F)c(NC(=O)c3ccsc3S(C)(=O)=O)c(F)c2F)c1 [compound 15, 2-(Methylsulfonyl)-N-{2,3,5,6-tetrafluoro-3’-(^2H3)methoxy-[1,1'-biphenyl]-4-yl}thiophene-3-carboxamide] |  |  |  | 
13 | ~25 | 1200 ± 200 nM | 2.17 ± 0.11 fold | 217% |  |  | 76 ± 6% |  | [2H]C([2H])([2H])Oc1cccc(-c2c(F)c(F)c(NC(=O)c3ccsc3S(C)(=N)=O)c(F)c2F)c1 (stereo not drawn) [compound 16, 2-(S-Methylsulfonimidoyl)-N-{2,3,5,6-tetrafluoro-3’-(^2H3)methoxy-[1,1'-biphenyl]-4-yl}thiophene-3-carboxamide] |  |  |  | 
14 | 3.0 | 1100 ± 100 nM | 2.09 ± 0.08 fold | 209% | 3330 ± 60 nM |  |  | 3300 nM | [2H]C([2H])([2H])Oc1cccc(-c2c(F)c(F)c(NC(=O)c3ccsc3S(N)(=O)=O)c(F)c2F)c1 [compound 13, Sulfamoyl-N-{2,3,5,6-tetrafluoro-3'-(^2H3)methoxy-[1,1'-biphenyl]-4-yl}thiophene-3-carboxamide] |  |  |  | 
15 | 4.4 | 900 ± 100 nM | 1.89 ± 0.06 fold | 189% | 4000 ± 1000 nM |  |  |  | [2H]C([2H])([2H])Oc1cccc(-c2c(F)c(F)c(NC(=O)c3ccsc3S(=O)(=O)NC(C)=O)c(F)c2F)c1 [compound 14, 2-(N-Acetylsulfamoyl)-N-{2,3,5,6-tetrafluoro-3’-(^2H3)methoxy-[1,1'-biphenyl]-4-yl}thiophene-3-carboxamide] |  |  |  | 
16 | >100 | 900 ± 100 nM | 2.3±0.2 fold | 230% |  |  | 40 ± 8% |  | [2H]C([2H])([2H])Oc1cccc(-c2c(F)c(F)c(NC(=O)c3cscc3-c3nc(=S)on3C)c(F)c2F)c1 [compound 25, 4-(2-Methyl-5-thioxo-2,5-dihydro-1,2,4-oxadiazol-3-yl)-N-{2,3,5,6-tetrafluoro-3’-(^2H3)methoxy-[1,1'-biphenyl]-4-yl}thiophene-3-carboxamide] |  |  |  | 
17 | 1.9 | 140 ± 10 nM | 1.9±0.1 fold | 190% | 260 ± 40 nM |  |  |  | [2H]C([2H])([2H])Oc1cccc(-c2c(F)c(F)c(NC(=O)c3ccccc3-c3nn[nH]n3)c(F)c2F)c1 [compound 31, N-{2,3,5,6-Tetrafluoro-3’-(^2H3)methoxy-[1,1'-biphenyl]-4-yl}-2-(2H-tetrazol-5-yl)benzamide] |  |  |  | 
18 | 7 | 100 ± 50 nM | 1.97 ± 0.43 fold | 197% | 700 ± 500 nM |  |  |  | [2H]C([2H])([2H])Oc1cccc(-c2c(F)c(F)c(NC(=O)c3ccsc3-c3c(O)c(=O)c3=O)c(F)c2F)c1 [compound 17, 2-(2-Hydroxy-3,4-dioxocyclobut-1-en-1-yl)-N-{2,3,5,6-tetrafluoro-3’-(^2H3)methoxy-[1,1'-biphenyl]-4-yl}thiophene-3-carboxamide] |  |  |  | 
19 | 28 | 21 ± 2 nM | 2.14 ± 0.11 fold | 214% | 600 ± 200 nM |  |  |  | [2H]C([2H])([2H])Oc1cccc(-c2c(F)c(F)c(NC(=O)c3ccsc3-c3nn[nH]n3)c(F)c2F)c1 [compound 19, N-{2,3,5,6-Tetrafluoro-3’-(^2H3)methoxy-[1,1'-biphenyl]-4-yl}-2-(2H-tetrazol-5-yl)thiophene-3-carboxamide] |  |  |  | 
20 | 3.9 | 11 ± 2 nM | 2.5±0.2 fold | 250% | 43 ± 6 nM |  |  |  | [2H]C([2H])([2H])Oc1cccc(-c2c(F)c(F)c(NC(=O)c3cscc3-c3nn[nH]n3)c(F)c2F)c1 [compound 22, N-{2,3,5,6-Tetrafluoro-3’-(^2H3)methoxy-[1,1'-biphenyl]-4-yl}-4-(2H-tetrazol-5-yl)thiophene-3-carboxamide] |  |  |  | 
